Reference: patent publication US5614374A, “Glycerol dehydrogenase, process for its production and its use” (Toyo Boseki Kabushiki Kaisha, priority 1992, dated 1997)

Experiments:
[1] = system: PQQ-dependent soluble glycerol dehydrogenase from Pseudomonas sp. TE3493 (FERM BP-4169); experiment: Km determination of purified glycerol dehydrogenase (ferricyanide activity assay); format: biochemical; settings: purified enzyme of Example 1
Experimental: (§1) Hereunder is explained a method for the determination of the activity of the novel glycerol dehydrogenase according to the present invention. To the reaction solution are added 0.7 ml of a 50 mM Tris--HCl buffer solution, 0.1 ml of a 0.1 M glycerol and the enzyme solution to a total volume of 0.9 ml. The mixture was preheated at 25° C. for 5 minutes, and 0.1 ml of a 0.1 M potassium ferricyanide was added thereto for the initiation of the reaction. The reaction is terminated by addition of 0.5 ml of ferric sulfate/Dupanol reagent thereto, after which 3.5 ml of distilled water is added thereto to a total volume of 5 ml. Then the mixture was allowed to stand at 25° C. for 30 minutes, followed by measurement of absorbance at 660 nm. A blank test is carried out in the same manner as the above-mentioned one, but adding distilled water instead of the enzyme solution. The activity of glycerol dehydrogenase is expressed with one unit (U) being defined as the enzyme activity which oxidizes 1 μmole of glycerol in 1 minute under the conditions specified above.
In a 500 ml Sakaguchi flask there were placed 100 ml of a culture medium which contained 0.5% glycerol, 0.2% NaNO3, 0.2% (NH4)2 SO4, 1% K2 HPO4, 1% KH2 PO4, 0.02% MgSO4.7H2 O and 0.05% yeast extracts, followed by autoclaving at 121° C. for 15 minutes. One loopful of cells of Pseudomonas sp. […]

[2] = system: PQQ-dependent membrane-bound glycerol dehydrogenase from Gluconobacter industrius IFO 3260; experiment: Km determination of comparison glycerol dehydrogenase (membrane-bound); format: biochemical; settings: enzyme preparation of Comparison 1, solubilized with dimethyldodecylamine oxide
Experimental: as §1
Gluconobacter industrious IFO3260 was cultivated in the same manner as in Example 1. The culture solution was centrifuged to harvest the cells which were then subjected to a conventional manner to yield a membrane fraction. […]

Which Km [1] does the source give for `OCC(O)CO` [glycerol] here?
The Km was 2.45 mM.

And the Km [2]?
The Km was 34 mM.
